The test system of the first assay is ATF4. Description: HEK-ATF4 high-content immunofluorescence imaging assay (ER stress). Type of assay: cell-based, human. The settings on record: HEK293 cells, 6 h, nuclear ATF4 as marker. The procedure: Here, the nuclear localization of the transcription factor ATF4 (which leads to subsequent expression of CHOP and cell death) was used as a phenotypic marker of ER stress (Figure 3A). Use of multi(384)-well plate format allowed wild-type HEK cells to be treated with analogues over a titrating concentration range of 0.5 nM to […] for 6 h in a quantitative manner (Figure 3C). After fixation with paraformaldehyde, high-content cellular fluorescence microscopy imaging was used to both determine the site and quantify the location of ATF4[32] (Figure 3B,C). Thus, immunofluorescent staining of the cells exploited a primary rabbit anti-ATF4 (D4B8) antibody followed by a solution containing a secondary Alexa Fluor 488-labeled goat anti-rabbit IgG along with Hoechst 33342 nuclei stain. In this way, confocal fluorescence microscopy at excitation wavelengths of 405 and 488 nm produced, as a direct primary readout, the intensity of ATF4 located in the nucleus as well as the ratio of ATF4 located between the nucleus (colocalized with Hoechst) and cytoplasm (see Figure 3B,C for representative images and the Supporting Information for channel-by-channel images). Concurrent readout of the number of stained nuclei (Hoechst nuclei stain) in live cells was also used as an internal cytotoxicity measure. This high-content method allowed detailed quantitative cellular dose responses to be determined with precision (Figure 3D). […] Consistent with ATF4 as a driver of apoptosis, this also drove cell death at higher concentrations (EC50 ∼ 10 μM) similar to those determined previously.[33] This therefore identified a clear dose–response window of more than 2 orders of magnitude over such key downstream events.
Figure 3 High-content phenotypic screen for putative ER stress inducers. (A) Schematic of the screening process. 12,000 HEK293 WT cells per well were plated into a 384-well plate and incubated at 37 °C for 24 h. Compounds were serially diluted and added to the plate and incubated for 6 h at 37 °C, at which point the cells were fixed with 4% PFA in PBS. The plates were then submitted to indirect ATF4 immunofluorescence, in which the plate was incubated with a primary anti-ATF4 (D4B8) antibody, followed by Alexa Fluor 488-labeled goat anti-rabbit secondary antibody and Hoechst 33342 dye. Plates were imaged using an OPERA-Phenix high-content imaging platform with fluorescence excitation at 405 and 488 nm. The images were analyzed, and the nuclear intensity of ATF4 for each cell was quantitatively determined (gray filled circles, left-hand axis in (D)) as well as the count of live cells (black squares, right-hand axis in (D)). Created in BioRender. https://BioRender.com/z32w873 (B) Representative section of imaging (red = nuclei, green = ATF4) for a given cellular population at a single dose (here exposed to tunicamycin at 41.2 nM). (C) Representative series panels of dose–response images after exposure to three different Tun-XE,YG analogues and DMSO control. (D) Corresponding resulting quantification of the high-throughput microscopy assay displaying the live cell count (black, right axis) and the nuclear intensity of ATF4 (gray, left axis) of tunicamycin and two lipid altered analogues, one with a large lipid at the gating position (Tun-9E,9G) and other with a short lipid at this position (Tun-8E,2G). See the Supporting Information for full details.
Supplementary Phenotypic Screening Methods
Tunicamycin analogues were tested in the HEK-ATF4 High Content Imaging assay to assess their ER stress generating ability. Wild-type HEK293 cells were plated in 384-well imaging assay plates at a density of 12,000 cells per well in growth medium (containing DMEM/F12, 10% FBS, 2 mM L-Glutamine, 100 U/mL Penicillin - 100µg/mL Streptomycin) and incubated at 37°C, 5% CO2. 24-hrs later, the medium was changed to 50 µl assay medium per well (DMEM/F12, 0.3% FBS, 2mM L-Glutamine, 100 U/mL Penicillin – 100 µg/mL […]
Streptomycin). […]
Consider `CCCCCCCCC(=O)N[C@H]1[C@H](O[C@H]2O[C@H](CO)[C@@H](O)[C@H](O)[C@H]2NC(=O)CCCCCCCC)O[C@H](C[C@@H](O)[C@H]2O[C@@H](n3ccc(=O)[nH]c3=O)[C@H](O)[C@@H]2O)[C@H](O)[C@@H]1O` [Tun-9E,9G], for which the “ER stress response in the phenotypic assay (in words)” value (shortened to “ER stress response”) is listed as “did not induce any ER stress response”. Same read-out and setting: then `CCCCCCCC(=O)N[C@H]1[C@H](O[C@H]2O[C@H](CO)[C@@H](O)[C@H](O)[C@H]2NC(C)=O)O[C@H](C[C@@H](O)[C@H]2O[C@@H](n3ccc(=O)[nH]c3=O)[C@H](O)[C@@H]2O)[C@H](O)[C@@H]1O` [Tun-8E,2G], with “did not induce ER stress”. In the case of `CCCCCCCCC(=O)N[C@H]1[C@@H](O[C@@H]2O[C@H](C[C@@H](O)[C@H]3O[C@@H](n4ccc(=O)[nH]c4=O)[C@H](O)[C@@H]3O)[C@H](O)[C@H](O)[C@H]2NC(=O)CCC)O[C@H](CO)[C@@H](O)[C@@H]1O` [Tun-4E,9G], the “ER stress response” value is listed as “did not induce any ER stress response”.

On to `CCCCCCCCC(=O)N[C@H]1[C@H](O[C@H]2O[C@H](CO)[C@@H](O)[C@H](O)[C@H]2NC(=O)CC(C)C)O[C@H](C[C@@H](O)[C@H]2O[C@@H](n3ccc(=O)[nH]c3=O)[C@H](O)[C@@H]2O)[C@H](O)[C@@H]1O` [Tun-9E,i5G], for which the “ER stress response” value is recorded as “did not induce ER stress”.

Regarding tunicamycin [reference compound], the “ER stress response” value is “clear ER stress response”.

The assay is the same for the next values; noted with them: wild-type HEK293 cells, 6 h treatment; read-out: EC50, increase in ATF4 in the nucleus.
Regarding tunicamycin [reference compound], the half-maximal effective concentration (EC50) amounted to 44 ± 3.2 nM.

In general, EC50 refers to the concentration needed to bring the measured effect to its halfway point.

(Values after PMC11758266, “Lipid-Modulated, Graduated Inhibition of N-Glycosylation Pathway Priming Suggests Wide Tolerance of ER Proteostasis to Stress” (ACS Central Science, 2024).)
